Reference: patent US20260125346A1, “Isoquinolinone Derivatives and 4H-Quinolizinone Derivatives and Pharmaceutical Compositions Thereof for the Treatment of Disease” (BeOne Medicines I GmbH, priority 2023, published 2026)

Experiments:
[1] = target: PI3Kα (p110/p85) kinase (wild type, "WT") (Homo sapiens, UniProt P42336); test: PI3Kα (p110/p85) kinase ADP-Glo Assay; assay type: biochemical; settings: 25 uM ATP
Method in brief: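 Wild-type PI3Kα p110/p85 preincubated 30 min at RT with PI(4,5)P2:PS substrate ([…]) and compound ([…]) in HEPES pH7.5 buffer with MgCl2, DTT and BSA; reaction started with 25 µM ATP for 120 min at RT. ADP measured by ADP-Glo luminescence; IC50 from four-parameter logistic fit.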

[2] = target: PI3Kα (p110[H1047R]/p85) kinase (Homo sapiens, UniProt P42336, H1047R); test: PI3Kα (p110[H1047R]/p85) kinase ADP-Glo Assay; assay type: biochemical; settings: 25 uM ATP; for selectivity: WT/H1047R: ADP-Glo Assay IC50 ratio
Method in brief: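 PI3Kα H1047R/p85 pre-incubated 30 min at room temperature with PI(4,5)P2:PS substrate ([…]) and compound ([…]) in HEPES pH 7.5 buffer with MgCl2; ATP ([…]) then added for 120 min. ADP quantified by ADP-Glo luminescence; IC50 from four-parameter logistic fit.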

Sequence of PI3Kα (p110[H1047R]/p85) kinase (P42336 whole entry H1047R): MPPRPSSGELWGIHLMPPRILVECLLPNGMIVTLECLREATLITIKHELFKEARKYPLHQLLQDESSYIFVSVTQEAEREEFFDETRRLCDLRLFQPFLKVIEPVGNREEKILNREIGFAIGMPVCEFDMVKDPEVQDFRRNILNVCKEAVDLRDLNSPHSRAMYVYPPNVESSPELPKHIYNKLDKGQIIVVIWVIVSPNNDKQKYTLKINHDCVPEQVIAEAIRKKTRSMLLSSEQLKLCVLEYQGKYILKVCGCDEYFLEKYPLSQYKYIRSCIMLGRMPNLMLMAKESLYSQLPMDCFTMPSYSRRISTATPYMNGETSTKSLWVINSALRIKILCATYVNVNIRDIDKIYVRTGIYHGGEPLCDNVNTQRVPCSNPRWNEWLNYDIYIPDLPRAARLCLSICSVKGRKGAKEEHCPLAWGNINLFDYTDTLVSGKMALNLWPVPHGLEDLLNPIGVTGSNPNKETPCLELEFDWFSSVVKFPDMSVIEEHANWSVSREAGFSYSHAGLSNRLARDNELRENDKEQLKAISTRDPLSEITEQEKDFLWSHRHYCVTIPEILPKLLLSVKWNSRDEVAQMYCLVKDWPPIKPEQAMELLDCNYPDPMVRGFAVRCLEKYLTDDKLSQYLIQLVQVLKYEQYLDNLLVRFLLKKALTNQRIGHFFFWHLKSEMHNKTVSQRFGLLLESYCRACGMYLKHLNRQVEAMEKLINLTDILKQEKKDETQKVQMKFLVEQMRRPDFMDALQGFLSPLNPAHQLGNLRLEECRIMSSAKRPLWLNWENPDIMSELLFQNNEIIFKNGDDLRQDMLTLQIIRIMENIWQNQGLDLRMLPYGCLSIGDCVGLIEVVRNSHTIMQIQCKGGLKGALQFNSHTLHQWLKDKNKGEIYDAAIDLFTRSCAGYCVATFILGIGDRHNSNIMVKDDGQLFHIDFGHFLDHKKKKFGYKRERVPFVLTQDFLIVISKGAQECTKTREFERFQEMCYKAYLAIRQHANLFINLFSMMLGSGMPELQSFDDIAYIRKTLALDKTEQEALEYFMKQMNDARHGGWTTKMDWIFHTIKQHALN
Sequence of PI3Kα (p110[H1047R]/p85) kinase (P27986 whole entry partner): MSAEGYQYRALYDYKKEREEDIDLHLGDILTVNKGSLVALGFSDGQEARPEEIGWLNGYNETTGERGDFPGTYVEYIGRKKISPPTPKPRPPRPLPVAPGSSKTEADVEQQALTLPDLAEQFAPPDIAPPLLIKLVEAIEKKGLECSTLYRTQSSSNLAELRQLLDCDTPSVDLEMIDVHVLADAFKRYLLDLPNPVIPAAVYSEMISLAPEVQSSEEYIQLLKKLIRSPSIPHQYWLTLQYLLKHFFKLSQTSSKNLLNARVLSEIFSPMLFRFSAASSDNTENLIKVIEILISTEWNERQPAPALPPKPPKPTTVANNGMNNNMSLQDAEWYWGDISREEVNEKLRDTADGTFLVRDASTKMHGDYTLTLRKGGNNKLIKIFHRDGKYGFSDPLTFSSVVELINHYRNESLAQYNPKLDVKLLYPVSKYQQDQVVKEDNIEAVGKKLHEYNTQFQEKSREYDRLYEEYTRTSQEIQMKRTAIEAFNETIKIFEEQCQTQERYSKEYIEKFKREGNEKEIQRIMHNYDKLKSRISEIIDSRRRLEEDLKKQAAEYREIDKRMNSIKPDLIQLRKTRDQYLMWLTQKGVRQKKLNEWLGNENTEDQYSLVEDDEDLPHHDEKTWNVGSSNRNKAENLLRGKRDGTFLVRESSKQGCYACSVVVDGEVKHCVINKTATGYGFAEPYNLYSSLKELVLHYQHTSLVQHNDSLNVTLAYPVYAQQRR
Sequence of PI3Kα (p110/p85) kinase (wild type, "WT") (P42336 whole entry): as the sequence (P42336 whole entry H1047R) above, with R1047H counted along it
Sequence of PI3Kα (p110/p85) kinase (wild type, "WT") (P27986 whole entry partner): as the sequence (P27986 whole entry partner) above

| Compound | IC50 [1] [nM] | IC50 [2] [nM] | selectivity: WT/H1047R [2] |
| --- | --- | --- | --- |
| Cc1cc(C(C)Nc2ccccc2C(=O)O)c2cc(-c3ccccc3C#N)n(C)c(=O)c2c1 (stereo not drawn) [Example 32, 2-((1-(3-(2-cyanophenyl)-2,7-dimethyl-1-oxo-1,2-dihydroisoquinolin-5-yl)ethyl)amino)benzoic acid] | 61100 | 332 | 184.0 |
| Cc1cc(C(C)Nc2ccccc2C(=O)O)c2cc(-c3ccc(F)cc3)n(CC#N)c(=O)c2c1 (stereo not drawn) [Example 63, 2-((1-(2-(cyanomethyl)-3-(4-fluorophenyl)-7-methyl-1-oxo-1,2-dihydroisoquinolin-5-yl)ethyl)amino)benzoic acid] | 6140 | 92 | 66.8 |
| Cc1cc(C(C)Nc2ccccc2C(=O)O)c2cc(-c3ccc(F)cc3)n(-c3nccs3)c(=O)c2c1 (stereo not drawn) [Example 71, 2-((1-(3-(4-fluorophenyl)-7-methyl-1-oxo-2-(thiazol-2-yl)-1,2-dihydroisoquinolin-5-yl)ethyl)amino)benzoic acid] | 14200 | 312 | 45.7 |
| Cc1cc(C(C)Nc2ccccc2C(=O)O)c2cc(-c3cc(F)cc(F)c3)n(C)c(=O)c2c1 (stereo not drawn) [Example 10, 2-((1-(3-(3,5-difluorophenyl)-2,7-dimethyl-1-oxo-1,2-dihydroisoquinolin-5-yl)ethyl)amino)benzoic acid] | 8080 | 224 | 36.1 |
| COC1(c2ccc(-c3cc4c(C(C)Nc5ccccc5C(=O)O)cc(C)cc4c(=O)n3C)cc2)CCOCC1 (stereo not drawn) [Example 74, 2-((1-(3-(4-(4-methoxytetrahydro-2H-pyran-4-yl)phenyl)-2,7-dimethyl-1-oxo-1,2-dihydroisoquinolin-5-yl)ethyl)amino)benzoic acid] | 13100 | 729 | 18.0 |
| Cc1cc(C(C)Nc2ccccc2C(=O)O)c2cc(-c3ccc(F)cc3)n(C3CCOCC3)c(=O)c2c1 (stereo not drawn) [Example 96, 2-((1-(3-(4-fluorophenyl)-7-methyl-1-oxo-2-(tetrahydro-2H-pyran-4-yl)-1,2-dihydroisoquinolin-5-yl)ethyl)amino)benzoic acid] | 72000 | 910 | 79.1 |
| Cc1cc(C(C)Nc2ccccc2C(=O)O)c2cc(-c3ccc(P(C)(C)=O)cc3)n(C)c(=O)c2c1 (stereo not drawn) [Example 79, 2-((1-(3-(4-(dimethylphosphoryl)phenyl)-2,7-dimethyl-1-oxo-1,2-dihydroisoquinolin-5-yl)ethyl)amino)benzoic acid] | 59200 | 2420 | 24.4 |
| Cc1cc(C(C)Nc2ccccc2C(=O)O)c2cc(-c3nc4ccccc4s3)n(C)c(=O)c2c1 (stereo not drawn) [Example 17, 2-((1-(3-(benzo[d]thiazol-2-yl)-2,7-dimethyl-1-oxo-1,2-dihydroisoquinolin-5-yl)ethyl)amino)benzoic acid] | 7780 | 255 | 30.5 |

The next lines start with the values.

| IC50 [1] [nM] | IC50 [2] [nM] | selectivity: WT/H1047R [2] | Compound |
| --- | --- | --- | --- |
| 26000 | 725 | 35.9 | Cc1cc(C(C)Nc2ccccc2C(=O)O)c2cc(-c3ccc(C(C)(C)O)nc3)n(C)c(=O)c2c1 (stereo not drawn) [Example 55, 2-((1-(3-(6-(2-hydroxypropan-2-yl)pyridin-3-yl)-2,7-dimethyl-1-oxo-1,2-dihydroisoquinolin-5-yl)ethyl)amino)benzoic acid] |
| 3280 | 304 | 10.8 | Cc1cc(C(C)Nc2ccccc2C(=O)O)c2cc(C#Cc3cnn(C)c3)n(C)c(=O)c2c1 (stereo not drawn) [Example 80, 2-((1-(2,7-dimethyl-3-((1-methyl-1H-pyrazol-4-yl)ethynyl)-1-oxo-1,2-dihydroisoquinolin-5-yl)ethyl)amino)benzoic acid] |
| 17100 | 1050 | 16.3 | Cc1cc([C@@H](C)Nc2ccccc2C(=O)O)c2cc(-c3ccc(C(C)(C)O)nc3)n(C)c(=O)c2c1 [Example 56, (R)-2-((1-(3-(6-(2-hydroxypropan-2-yl)pyridin-3-yl)-2,7-dimethyl-1-oxo-1,2-dihydroisoquinolin-5-yl)ethyl)amino)benzoic acid] |
| 9810 | 267 | 36.7 | Cc1cc(C(C)Nc2ccccc2C(=O)O)c2cc(-c3cncc(F)c3)n(C)c(=O)c2c1 (stereo not drawn) [Example 38, 2-((1-(3-(5-fluoropyridin-3-yl)-2,7-dimethyl-1-oxo-1,2-dihydroisoquinolin-5-yl)ethyl)amino)benzoic acid] |
